# Key:
# [1] = Test 2: thermal analysis, stability against heat by differential scanning calorimeter; format: physicochemical; conditions: temperature rise rate 10° C./min
# From the text: The samples shown in Table 2 were examined for stability against heat with a differential scanning calorimeter (model DSC 3100, manufactured by MAC Science).
# [2] = Test 4: dissolution test (Japanese Pharmacopoeia Method 2) in second fluid; format: physicochemical; conditions: second fluid of the Japanese Pharmacopoeia; dissolved cefditoren pivoxil determined at 272 nm
# Method: For each sample shown in Table 2, a dissolution test (see The Japanese Pharmacopoeia, Fourteenth Edition, Part I, General Tests “56. Dissolution test, Method 2”) was carried out in a second fluid specified in the Japanese Pharmacopoeia (a fluid prepared by adding 118 mL of a 0.2 mol/L sodium hydroxide reagent solution and water to 250 mL of a 0.2 mol/L potassium dihydogenphosphate reagent solution; the amount of the water being a sufficient amount to bring the total volume of the fluid to 1,000 mL). The fluid with the sample dissolved therein was sampled at fixed intervals of time and was filtered through a glass filter G-4 manufactured by TOYAMA SANGYO Co., Ltd., and the amount of dissolved cefditoren pivoxil was then quantitatively determined at a measuring wavelength of 272 nm with a spectrophotometer (UV-160, manufactured by Shimadzu Seisakusho Ltd.
exothermic peak in DSC curve (transfer to a crystalline state) [1],SMILES,dissolvability (dissolution curve of cefditoren pivoxil) [2]
around 140 °C,"CO/N=C(\C(=O)N[C@@H]1C(=O)N2C(C(=O)OCOC(=O)C(C)(C)C)=C(/C=C\c3scnc3C)CS[C@H]12)c1csc(N)n1 [amorphous cefditoren pivoxil, (−)-(6R,7R)-7-[(Z)-2-(2-aminothiazol-4-yl)-2-methoxyiminoacetamido]-3-[(Z)-2-(4-methylthiazol-5-yl)ethenyl]-8-oxo-5-thia-1-azabicyclo[4.2.0]oct-2-ene-2-carboxylic acid 2,2-dimethylpropionyloxymethyl ester]",–
–,"CO/N=C(\C(=O)N[C@@H]1C(=O)N2C(C(=O)OCOC(=O)C(C)(C)C)=C(/C=C\c3scnc3C)CS[C@H]12)c1csc(N)n1 [crystalline cefditoren pivoxil, (−)-(6R,7R)-7-[(Z)-2-(2-aminothiazol-4-yl)-2-methoxyiminoacetamido]-3-[(Z)-2-(4-methylthiazol-5-yl)ethenyl]-8-oxo-5-thia-1-azabicyclo[4.2.0]oct-2-ene-2-carboxylic acid 2,2-dimethylpropionyloxymethyl ester]",substantially no difference in dissolvability

# — patent US7527808B2, “Amorphous cefditoren pivoxil composition and process for producing the same” (Meiji Seika Kaisha, Ltd., priority 2001, dated 2009)
